From patent US4491594A, “Method for treatment of seizures” (Eisai Co., Ltd., priority 1983, dated 1985)

Columns and labels:
[1] = system: penicillin cortical focus; assay: EEG spike discharge in penicillin cortical focus epilepsy model (Co Q10 given after penicillin G); format: in vivo, Male Sprague-Dawley rats
Description: (§1) Male Sprague-Dawley rats each having a body weight in the range of 250 to 350 g were used for the experiment.
(§2) Each test rat, anesthetized with ether and immobilized with succinylcholine was subjected to tracheal intubation and fixed to a stereotaxic instrument under artificial respiration. A hole about 3 mm in diameter was made at a part of the skull corresponding to the left-side sensory-motor cortex and the dura mater was cut out to expose the cerebral cortex surface. The skull was immersed in a physiological saline solution. A 2 mm square filter paper impregnated with […] of penicillin (penicillin G) was then applied directly to the cerebral surface to form a penicillin cortical focus. This focus is a typical epilepsy model.
Each rat skull was bared and screw electrodes, four in all, were fixedly planted at the following four locations: two sites 2 mm to the left and right, respectively, from a position 2 mm forward of the bregma, and two sites 3 mm to the left and right, respectively, from a position 6 mm rearward of the bregma. Unipolar and bipolar electroencephalograms (EEG) were recorded by the electrodes. Electrocardiogram readings were simultaneously taken. EEG lead measurements were conducted of (1) four bipolar leads comprising a lead from the left sincipital region to the left occipital region, a lead from the right sincipital region to the right occipital region, a lead from the left to the right sincipital region, and a lead from the left to the right occipital region, and (2) four unipolar leads comprising leads from each of the left sincipital region, left occipital region, right sincipital region and right occipital region.
The corticogram shown in FIG. 6 illustrates the procedure employed. The recordings were carried out from 4 epidural electrodes. LF-LO: bipolar recording from left frontal electrode (LF) to left occipital electrode (LO), RF-RO: bipolar recording from right frontal electrode (RF) to right occipital electrode (RO), LF-RF: bipolar recording from LF to RF, LO-RO: bipolar recording from LO to RO, LF-E: unipolar recording from LF, LO-E: unipolar recording from LO, RF-E: unipolar recording from RF, RO-E: unipolar recording from RO.
83.5 U/μl of penicillin G was absorbed into a 2 mm square filter paper and directly applied to the cerebral cortex surface from an opening formed around the left sensory-motor cortex. coenzyme Q10 (Co Q10) was administered intraperitoneally to each rat, and the EEG patterns were recorded in the same way as above. As a control, a solvent alone was administered intraperitoneally to control rats at the same rate.
Further experiments were conducted by the same procedure as used in Experimental Example 1, except that the time of the administration of coenzyme Q10 was changed. The results are shown in Table 1 below as Experimental Examples 2 to 4. In Table 1, PCG represents penicillin G.

[2] = system: penicillin cortical focus; assay: Prevention of EEG spike discharge in penicillin cortical focus model (Co Q10 given before penicillin G); format: in vivo, Male Sprague-Dawley rats; conditions: Table 1, Experimental Example 4; 100 mg/kg Co Q10 first, PCG applied 64 minutes thereafter
Description: as §1, §2
Each rat skull was bared and screw electrodes, four in all, were fixedly planted at the following four locations: two sites 2 mm to the left and right, respectively, from a position 2 mm forward of the bregma, and two sites 3 mm to the left and right, respectively, from a position 6 mm rearward of the bregma. Unipolar and bipolar electroencephalograms (EEG) were recorded by the electrodes. Electrocardiogram readings were simultaneously taken. […]

Acute toxicity, rat = conditions: in vivo, read-out: acute dosages
Description: (§3) The results of toxicity tests on coenzyme Q10 used in this invention are shown below.

Acute toxicity, mouse = conditions: in vivo, read-out: acute dosages
Description: as §3

Wistar rats = assay: Chronic toxicity, 26 weeks per os; format: in vivo, male and female Wistar rats; conditions: 6, 60 and 600 mg/kg/day per os, 26 successive weeks
Method: Coenzyme Q10 was forcibly administered per os to both male and female Wistar rats at doses of 6, 60 and 600 mg/kg/day for a period of 26 successive weeks. After this testing period, an examination of the general condition, a blood test, a urine test and a morphological observation (macroscopic and histologic) were conducted.

Solubility = format: physicochemical
[3] = Experimental Example 1, intraperitoneal
[4] = Table 1, Experimental Example 2, 100 mg/kg, 107 minutes after applying PCG
[5] = Table 1, Experimental Example 3, 100 mg/kg, 65 minutes after applying PCG

For `COC1=C(OC)C(=O)C(C/C=C(\C)CC/C=C(\C)CC/C=C(\C)CC/C=C(\C)CC/C=C(\C)CC/C=C(\C)CC/C=C(\C)CC/C=C(\C)CC/C=C(\C)CCC=C(C)C)=C(C)C1=O` [coenzyme Q10], the “duration of disappearance of the spike discharge” value (“duration” for short) [1, 3] was “more than 200 minutes”, the “time to disappearance of the spike discharge after administration of coenzyme Q10” value [1, 3] was “about 10 minutes” and the “duration” value [1, 4] was “more than 120 minutes”. For the same compound, the “time to disappearance of the spike discharge after administration of Co Q10” value [1, 4] was 20 min, the “duration” value [1, 5] was “more than 60 minutes” and the “time to disappearance of the spike discharge after administration of Co Q10” value [1, 5] was 19 min. For the same compound, the “time during which no spike discharge occurred” value [2] was “more than 80 minutes”, the LD50 (Acute toxicity, rat; im, intramuscular) was 500 mg/kg and the LD50 (Acute toxicity, rat; iv, Intravous) was 250 mg/kg. The LD50 (Acute toxicity, rat; oral) was 4000 mg/kg, the LD50 (Acute toxicity, rat; sc, subcutaneous) was 500 mg/kg and the LD50 (Acute toxicity, mouse; im, intramuscular) was 500 mg/kg. The LD50 (Acute toxicity, mouse; iv, Intravous) was 250 mg/kg, the LD50 (Acute toxicity, mouse; oral) was 4000 mg/kg and the LD50 (Acute toxicity, mouse; sc, subcutaneous) was 500 mg/kg. For the same compound, the “general condition, blood test, urine test and morphological observation vs control group” value (Wistar rats) was “No differences at all from the control group were observed”, the solubility (Solubility; in chloroform, benzene, carbon tetrachloride, acetone and ether) was “soluble” and the solubility (Solubility; in ethanol, water and methanol) was “insoluble”.
